According to patent US6204005A, “Immunoassay for toxic congeners of polychlorinated biphenyls” (priority 1995, dated 2001):

Columns and labels:
[1] = test system: anti-hapten antibody (sera of rabbits immunized with KLH-hapten I conjugate); test: Inhibition ELISA with BSA-Competitor 11 coating conjugate (Methods A,B); assay type: binding, rabbit; details: for I10 (mdl): Table 3, selected analytes, NR/>100 ppm, NR--No Assay Response
Description: A solution of the coating antigen, consisting of 100 ng of a BSA conjugate of Hapten I or Exemplified Competitor 11 above, in 50 μl of PBS (phosphate buffered saline, pH 7.4, 10 mM phosphate, 150 mM NaCl), was dispensed into each well of a 96-well microtiter plate (Dynatech Immulon-2 commercially available from Dynatech, Inc., Chantilly, Va.) and incubated at 28° C. (+/-0.5° C.) for 2 hours. The coating antigen solution was then removed from the wells and the plate was washed three times with PBS. All wash steps utilized a Cambridge Technology, Inc. Platewasher 260, commercially available from Cambridge Technology, Inc. Cambridge, Mass. The remaining active sites in the wells were blocked with a 150 μl solution of 1% BSA in PBS with 0.02% sodium azide for 2 hours at 28° C. After removal of the blocking solution the plate was washed three times with PBS. Serum stored at -20° C. was freshly thawed and diluted 100-250,000 fold with the 1% BSA in PBS/DT blocking buffer (PBS buffer containing 10% by volume dimethylformamide and 0.5% Triton X-100). This solution (50 μl/well) was then dispensed into replicate wells (3-6) on the plate, which was covered and incubated for 1 hour at room temperature (RT). After removal of the incubation solution the plate was washed three times with PBS. The labeled antibody, anti-rabbit IgG (whole molecule)--alkaline phosphatase conjugate, (Sigma No. A-8025 commercially available from Sigma Chemical Company, St. Louis, Mo.), diluted 1/500 with BSA/PBS, was added in a quantity of 50 μl/well and incubated for 1 hour at 28° C. After removal of the second antibody solution the plate was washed three times with PBS. The wells were then washed (one time) with 10 mM diethanolamine (pH 9.4) which contained 0.5 mM magnesium chloride. Substrate solution (50 μl; 10 mg p-nitrophenylphosphate in 10.0 ml of the diethanolamine/magnesium chloride) was added to each well and incubated for 30 minutes at 28° C. Sodium hydroxide (50 μl of a 0.05 N solution) was added to each of the wells to stop the reaction. The final Absorbance in each well was determined at 405 nm using a Cambridge Technologies, Inc. Model 750 Microplate Reader commercially available from Cambridge Technologies, Inc., Cambridge, Mass. The titer of the sera was determined by a Log Sera Dilution versus Absorbance plot and the EC50 value.
Inhibition ELISA followed the basic assay procedure described above with the following addition: The serum sample was diluted to its EC80 value (400-1000 fold) with the 1% BSA in PBS blocking buffer to which had been added 10% dimethylformamide, volume/volume (v/v), and 0.5% Triton® X-100 (PBS-DT). An aqueous analyte solution (e.g., Aroclor® 1248) was prepared by solution of the analyte in dimethylformamide followed by dilution to the required concentration in PBS-DT. The analyte solution was added to the antibody solution to achieve the desired concentration of analyte (typically 1 ppb-100 ppm) and the resulting solution was incubated overnight at room temperature. This solution (50 μl/well) was then dispensed into replicate wells (3-6) on the plate and the assay completed as above. The minimum detection limit (I10 ) and the I50 values were determined using a Log (Analyte Concentration in parts per billion--ppb) versus Absorbance or by converting absorbance to the B/Bo ratio where B=Sample Absorbance and Bo=Absorbance of the Blank Sample. […] This figure illustrates the significant improvement in PCB sensitivity as measured by both minimum detection limit (B/Bo=0.9) and assay range (B/Bo=0.5) on using a competitor versus a hapten as the competition reagent.
This assay format gave a minimum detection limit (I10) of approximately 0.2 ppm and an I50 of approximately 3 ppm.

[2] = test system: Hapten VII sera (polyclonal antibodies); test: Sera indirect EIA with Hapten VII sera and Competitor C; assay type: binding, mice; details: day 120 sera, Competitor C, FIG. 7
Description: The indirect EIA (immobilized competitor BSA conjugate) was performed as described by Karu, et al. (A. E. Karu, et al., J. Agric. Food Chem., 42, 301-309 (1994)).
The indirect EIA (Method 18) was used to evaluate sera samples taken on day 120.

[3] = test system: Hapten VII sera (polyclonal antibodies); test: Sera direct EIA with Hapten VII sera and competitor enzyme conjugate; assay type: binding, mice
Description: The competitors A-E and Hapten VII were conjugated to the enzyme, amino modified Horseradish Peroxidase (HRP) (horseradish peroxidase commercially available from Sigma Chemical Co. (No. P-6782), St. Louis, Mo.; amino modified per R. Hsiao and H. Royer, Archives Biochem. Biophys., 198, 379-385 (1979) to give 6-24 free amines), using the carbodiimide mediated carboxyl activation procedure described for Hapten VII in Example 24. Hapten and competitor load were determined by UV/Vis spectroscopy, also as described for Hapten VII.
(§1) The direct EIA (immoblized antibody and competitor enzyme conjugate) was performed as follows. Serum or monoclonal antibody supernatant stored at -20° C. was diluted 1,000-40,000 fold with PBS which contained 0.1% Tween-20. This solution was dispensed (500 ul) into donkey anti-mouse second antibody coated tubes (DAM Tubes commercially available from Millipore Corp., Bedford, Mass.) and incubated at room temperature overnight. The antisera solution was decanted from the tubes and the tubes washed 3 times with distilled water. Non-specific sites in the tubes were blocked with 600 ul of BSA blocking buffer (EIA Blocking Buffer commercially available from Millipore Corp., Bedford, Mass.) and incubated for 2 hours at room temperature or overnight at 4° C. The blocking buffer was decanted and the tubes allowed to dry under ambient room conditions for at least 2 hours. The assay was performed by adding 500 ul of assay diluent (1% methanol (v/v) and 0.005% Tween-20 (w/v) in distilled water) to the required number of tubes followed by 10 ul of a methanol solution of the analyte (PCB congener). After a 5 minute incubation at room temperature, the solution was decanted and the tubes rinsed 3-4 times with tap water. The horseradish peroxidase competitor or Hapten VII conjugates were diluted 1,000-60,000 fold from 2-5 mg/ml stock solutions in PBS with conjugate diluent (Enzyme Conjugate Diluent commercially available from Millipore Corp., Bedford, Mass.). The enzyme conjugate (200 ul) was added to the tubes followed by a 5 minute incubation at room temperature. The conjugate solution was decanted and the tubes rinsed 3-4 times with tap water. Enzyme substrate solution (500 ul, KPL No. 50-76-04 commercially available from KPL Laboratories, Gaithersburg, Md.) was added and the tubes were incubated at room temperature for 5-15 minutes. The enzyme reaction was stopped with the addition of 500 ul of 1N HCl. The OD of the solution was determined at 450 nm. The data was plotted using Log (Congener Concentration) versus B/Bo (B=Sample Absorbance, Bo=Sample Blank Absorbance).
The direct EIA (Method 19) was used to evaluate sera samples taken on day 120.

[4] = relative to 2,3,7,8-TCDD = 1.0; cited from earlier work
[5] = target: Hapten VII derived monoclonal antibody S2B1; test: Monoclonal antibody direct EIA with Competitor D enzyme conjugate; assay type: binding; details: for estimated I50: FIG. 9, 4-parameter logistic fits; for I50: FIG. 9, monoclonal antibody S2B1, text value
Description: as §1
Monoclonal antibodies were derived essentially as described by Karu, et al. (A. E. Karu, et al., J. Agric. Food Chem., 42, 301-309 (1994)) using Hapten VII BSA conjugate and Competitor C BSA conjugate for the primary screen.
FIG. 9 illustrates the specificity of a direct EIA based on the Hapten VII derived monoclonal antibody S2B1 and Competitor D enzyme conjugate. Both 3,3',4,4'-tetrachlorobiphenyl and 3,3',4,4',5-pentachlorobiphenyl give ca. 1 ppb I50 values. Cross-reactions of a number of congeners which are significant Aroclor(R) consitutents are <0.001%.

[6] = Table 7, Hapten VII sera and Competitor D direct EIA
[7] = direct EIA, day 120 sera, Competitor C, FIG. 8
[8] = BSA-Competitor 11 coating conjugate, FIG. 1 Plot 3 (analyte Aroclor 1248)

Compound: Clc1ccc(Cl)c(Cl)c1 [1,2,4-trichlorobenzene]
- I10 (mdl) [1]: > 100 ppm

Compound: Clc1ccccc1Cl [1,2-dichlorobenzene]
- I10 (mdl) [1]: > 100 ppm

Compound: Clc1cccc(Cl)c1 [1,3-dichlorobenzene]
- I10 (mdl) [1]: > 100 ppm

Compound: Clc1ccc(Cl)cc1 [1,4-dichlorobenzene]
- I10 (mdl) [1]: > 100 ppm

Compound: Clc1cc(Cl)c(-c2cc(Cl)c(Cl)cc2Cl)cc1Cl [2,2',4,4',5,5'-hexachlorobiphenyl]
- cross-reaction relative to 3,3',4,4'-tetrachlorobiphenyl [2]: < 0.0%
- I50 [3, 6]: > 20,000 ppb
- cross reaction relative to 3,3',4,4'-tetrachlorobiphenyl [3, 7]: < 0.05%
- TEF [4]: less than 0.00001

Compound: O=C(O)COc1ccc(Cl)cc1Cl [2,4-dichlorophenoxyacetic acid]
- I10 (mdl) [1]: > 100 ppm

Compound: Oc1cc(Cl)ccc1Cl [2,5-dichlorophenol]
- I10 (mdl) [1]: > 100 ppm

Compound: COc1cccc(Cl)c1 [3-chloroanisole]
- I10 (mdl) [1]: > 100 ppm

Compound: Oc1cccc(Cl)c1 [3-chlorophenol]
- I10 (mdl) [1]: > 100 ppm

Compound: Clc1ccc(-c2ccc(Cl)c(Cl)c2)cc1Cl [BZ No. 77, 3,3',4,4'-tetrachlorobiphenyl]
- I50 [2]: < 10 ppb
- I50 [3, 6]: 3 ppb
- I50 [3, 7]: 1.4 ppb
- estimated I50 [5]: 0.9 ppb
- I50 [5]: ca. 1 ppb
- TEF [4]: 0.01

Compound: Clc1ccc(-c2cc(Cl)c(Cl)c(Cl)c2)cc1Cl [BZ No. 126, 3,3',4,4',5-pentachlorobiphenyl]
- estimated I50 [5]: 1.2 ppb
- I50 [5]: ca. 1 ppb
- TEF [4]: 0.1

Compound: O=C(O)CCCCc1cc(Cl)ccc1Cl [Competitor 11, 5-(2,5-Dichlorophenyl)pentanoic acid]
- I50 [1, 8]: approximately 3 ppm
- minimum detection limit (I10) [1, 8]: approximately 0.2 ppm
- I50 ([3]; Table 6, I50 of analyte 3,3',4,4'-tetrachlorobiphenyl with the listed competitor, Hapten VII sera): 6-8 ppb
- Assay sensitivity versus Hapten VII enzyme conjugate based assay ([3]; in words, Table 6): significantly more sensitive
